The record followed here is patent publication US5366880A, “Antibiotic agent” (Merck & Co., Inc., priority 1993, dated 1994).

Converted amounts (≈) assume the structure as drawn. *1 amine or outer side, *2 acyl side, *3 side chain or, on linkers, in order; H or OH if unused. Where a SMILES comes first, the peptide text is derived from it. Bridges are numbered along the chain shown (N, C = ends). [ ]: non-standard residue; d: D form. The star is where a group is joined. ξ: configuration not given here. ξOrn(4,5-diOH) = O=C(C(CC(O)C(O)N[*:3])N[*:1])[*:2]; ξhTyr(βξ-OH,γξ-OH) = NC(C(=O)O)C(O)C(O)c1ccc(O)cc1; X2 = NC(=O)CC(O)C(N[*:1])C(=O)[*:2]; X3 = O=C(C1C(O)C(O)CN1[*:1])[*:2]; X1 = CCC(C)CC(C)CCCCCCCCC(=O)*; Hyp = O=C(O)[CH]1C[CH](O)CN1

In one experiment the test system is Candida tropicalis. The experiment can be described thus: minimum fungicidal concentration (MFC), microbroth dilution assay, Candida tropicalis. In kind it is cell-based. As to conditions: 24 h, strain MY 1012, YNBD. Here is the method:
(§1) The antifungal properties may be illustrated with the minimum fungicidal concentration (MFC) determinations against certain Candida organisms in a microbroth dilution assay carried out in Yeast Nitrogen Base (Difco) with 1 percent dextrose (YNBD). In carrying out the assay, Compound I was solubilized in 10 percent dimethyl sulfoxide (DMSO) and diluted to 2560 μg/ml. The compound was then diluted to 256 μg/ml in YNBD. 0.15 ml of the suspension was dispensed to the top row of a 96-well plate (each well containing 0.15 ml of YNDB) resulting in a drug concentration of 128 μg/ml. Two-fold dilutions were then made from the top row to obtain final drug concentrations ranging from 128 to 0.06 μg/ml.
(§2) The yeast cultures, maintained on Sabouraud dextrose agar were transferred to YM broth (Difco) and incubated overnight at 35° C. with shaking (250 rpm). After incubation, each culture was diluted in sterile water to yield a final concentration of 1-5×10^6 colony forming units (CFU)/ml.
(§3) 96-well microplates were inoculated using a MIC-2000 (Dynatech) which delivers 1.5 μl per well yielding a final inoculum per well of 1.5-7.5×10^3 cells. […] The minimum inhibitory concentrations (MICs) were recorded as the lowest concentrations of drug showing no visible growth.
(§4) After recording the MIC, the plates were shaken to resuspend the cells. […] The inoculated trays were incubated 24 hours at 28° C. and then read. […]

A further experiment deals with Candida pseudotropicalis. In words: minimum fungicidal concentration (MFC), microbroth dilution assay, Candida pseudotropicalis. In kind it is cell-based. As to conditions: Kluyveromyces marxianus, 24 h; strain MY 1100; YNBD. Here is the method:
as §1, §2, §3, §4

For the next experiment, the system named is Candida albicans. The experiment can be described thus: minimum fungicidal concentration (MFC), microbroth dilution assay, Candida albicans. In kind it is cell-based. The note with it: 24 h. The procedure:
as §1, §2
96-well microplates were inoculated using a MIC-2000 (Dynatech) which delivers 1.5 μl per well yielding a final inoculum per well of 1.5-7.5×10^3 cells. The microplates were incubated at 35° C. for 24 hours. The minimum inhibitory concentrations (MICs) were recorded as the lowest concentrations of drug showing no visible growth.
After recording the MIC, the plates were shaken to resuspend the cells. Thereafter, 1.5 μl samples from the wells in the 96-well microplate were transferred to a single well tray containing Sabouraud dextrose agar. The inoculated trays were incubated 24 hours at 28° C. and then read. The MFC is defined as the lowest concentration of drug showing no growth or less than 4 colonies per spot. The results (three samples) are seen in the following table: ______________________________________ Minimum Fungicidal Concentration (μg/ml) Fungi Compound Compound Strain No. IA IB ______________________________________ Candida albicans MY 1055 2 1 MY 1028 2 0.5 MY 1750 4 1 Candida tropicalis MY 1012 1 0.12 Candida pseudotropicalis MY 1100 4 2 ______________________________________

Another experiment relates to Pneumocystis carinii. In words: effectiveness against Pneumocystis carinii pneumonia in immunosuppressed rats. The class given is in vivo, Sprague-Dawley rats. As to conditions: subcutaneously twice daily for four days; for Reduction of Cysts / Log Mean # Cysts (± SEGM): rat lung; for Log Mean # Cysts (± SEGM): * significant (t-test); for Survivors: rats. The procedure: Compound I is useful for inhibiting or alleviating Pneumocystis carinii infections. In a representative study, the effectiveness of Compound I in rats were determined. Sprague-Dawley rats (weighing approximatley 250 g) were immunosuppressed with dexasone in the drinking water ([…]) and maintained on a low protein diet for 5 weeks to induce the development of Pneumocystis pneumonia from a latent infection. Before drug treatment 2 rats were sacrificed to confirm the presence of Pneumocystis carinii pneumonia (PCP); both rats had infections. The remaining rats (weighing approximately 150 g) were distributed into groups of 6 and injected twice daily for four days subcutaneously with compound in 0.25 ml of vehicle (10% DMSO in water or water). The control group of 5 rats received vehicle alone. All animals continued to receive dexasone in the drinking water and low protein diet during the drug treatment period. At the completion of treatment all animals were sacrificed, the lungs were removed and processed, and the extent of disease determined by microscopic analysis of stained slides. […] All groups were compared using the student t-test and results marked (*) are significant.

As for `CCC(C)CC(C)CCCCCCCCC(=O)NC1CC(O)C(O)NC(=O)C2CC(O)CN2C(=O)C(C(O)CC(N)=O)NC(=O)C(C(O)C(O)c2ccc(O)cc2)NC(=O)C2CC(O)CN2C(=O)C(C(C)O)NC1=O` (stereo not drawn) [Compound IA] (X1-[ξOrn(4,5-diOH)]T[Hyp][ξhTyr(βξ-OH,γξ-OH)][X2][Hyp]; lactam 1-C; configuration not given here), the MFC against Candida tropicalis came out at 1 µg/mL (≈ 0.939 µM); against Candida pseudotropicalis, 4 µg/mL (≈ 3.76 µM); in the experiment on Candida albicans (strain MY 1028, YNBD) it was 2 µg/mL (≈ 1.88 µM); with Candida albicans (strain MY 1055, YNBD), 2 µg/mL (≈ 1.88 µM); against Candida albicans (strain MY 1750, YNBD) it was 4 µg/mL (≈ 3.76 µM). Also, the “Reduction of Cysts” value with Pneumocystis carinii (0.15 mg/kg) was 88.5%; in the experiment on Pneumocystis carinii (0.30 mg/kg) it was 94.6%; in the experiment with Pneumocystis carinii (0.60 mg/kg), 97.4%; in the experiment on Pneumocystis carinii (1.20 mg/kg) it was 97.9%. Moreover, the “Log Mean # Cysts (± SEGM)” value in the experiment with Pneumocystis carinii (0.15 mg/kg) is on record as 6.32 ± .17; with Pneumocystis carinii (0.30 mg/kg), 5.99 ± .18; in the experiment with Pneumocystis carinii (0.60 mg/kg), 5.68 ± .19; with Pneumocystis carinii (1.20 mg/kg), 5.58 ± .11. In addition, the Survivors in the experiment on Pneumocystis carinii (0.15 mg/kg) is 6/6; in the experiment with Pneumocystis carinii (0.30 mg/kg), 5/6; in the experiment with Pneumocystis carinii (0.60 mg/kg) it was 6/6; in the experiment on Pneumocystis carinii (1.20 mg/kg), 5/6.
For the molecule `CCC(C)CC(C)CCCCCCCCC(=O)NC1CC(O)C(O)NC(=O)C2C(O)C(O)CN2C(=O)C(C(O)CC(N)=O)NC(=O)C(C(O)C(O)c2ccc(O)cc2)NC(=O)C2CC(O)CN2C(=O)C(C(C)O)NC1=O` (stereo not drawn) [Compound IB] (X1-[ξOrn(4,5-diOH)]T[Hyp][ξhTyr(βξ-OH,γξ-OH)][X2][X3]; lactam 1-C; configuration not given here), the minimum fungicidal concentration (MFC) was found to be 0.12 µg/mL (≈ 0.111 µM) against Candida tropicalis; 2 µg/mL (≈ 1.85 µM) against Candida pseudotropicalis; 0.5 µg/mL (≈ 0.462 µM) with Candida albicans (strain MY 1028, YNBD); 1 µg/mL (≈ 0.925 µM) in the experiment with Candida albicans (strain MY 1055, YNBD); 1 µg/mL (≈ 0.925 µM) against Candida albicans (strain MY 1750, YNBD). In addition, the “Reduction of Cysts” value is on record as 95.0% in the experiment with Pneumocystis carinii (0.03 mg/kg); 96.8% in the experiment with Pneumocystis carinii (0.07 mg/kg); 98.7% with Pneumocystis carinii (0.15 mg/kg); 99.4% with Pneumocystis carinii (0.30 mg/kg); 99.1% in the experiment with Pneumocystis carinii (0.60 mg/kg). For the same molecule, the “Log Mean # Cysts (± SEGM)” value is 6.16 ± .14 in the experiment on Pneumocystis carinii (0.03 mg/kg); 5.97 ± .18 with Pneumocystis carinii (0.07 mg/kg); 5.59 ± .11 with Pneumocystis carinii (0.15 mg/kg); 5.22 ± .10 in the experiment on Pneumocystis carinii (0.30 mg/kg); 5.41 ± .17 with Pneumocystis carinii (0.60 mg/kg). Also, the Survivors with Pneumocystis carinii (0.03 mg/kg), in the experiment with Pneumocystis carinii (0.07 mg/kg), in the experiment on Pneumocystis carinii (0.15 mg/kg), with Pneumocystis carinii (0.30 mg/kg) and in the experiment with Pneumocystis carinii (0.60 mg/kg) was 6/6 in each case.

One may read the MFC as the smallest concentration meeting the test's criterion for killing the fungus.
